Data reported in patent US20160206577A1, “NOVEL DRUG FORMULATION” (FAB PHARMA SAS, priority 2013, published 2016).
Blank lines part the entries; values can stand above or below the compound they belong to.

What was measured:
[1] = commercial intravenous formulations; cited from earlier work
[2] = system: methicillin-susceptible Staphylococcus aureus (MSSA); assay: Systemic mouse infection model against MSSA; assay type: in vivo; conditions: CD-1 mice, combined n=3 studies
Procedure: (§1) The aim of this study was to compare the in vivo efficacy of the prior art historical formulation with a novel nanosuspension of the present invention using a murine systemic infection model against both a susceptible (MSSA) and a methicillin resistant (MRSA) strains of S. aureus.
(§2) Three independent studies were run against each isolate (one MSSA and one MRSA), the data for the three studies combined and analysis performed. Bacterial isolates were grown to log phase in a liquid culture. Bacteria were diluted in 8% mucin to a concentration to achieve at least 90% mortality within 48 hours after infection. Six CD-1 female mice, 18-20 grams, were allocated per compound (I) concentration and were infected with 0.5 ml of bacterial suspension via intraperitoneal injection. Five minutes post-infection, mice were treated via intravenous administration. A nanosuspension of the invention (prepared according to Example 3) was prepared fresh just prior to single IV dose delivery at 50, 100 and 200 mg/kg (dosage of compound (I)). The prior art historical formulation of compound (I) (formulated at 10 mg/mL in 20% HPBCD, and 1% glucose) and vancomycin (Sigma Aldrich) were also administered IV at one dose and were used as comparators. Infection control mice were dosed with saline. Survival was assessed for 48 hours post infection. Date of death was recorded and a Probit analysis was performed to determine the PD50 (50% protective dose).

[3] = system: methicillin-resistant Staphylococcus aureus (MRSA 300); assay: Systemic mouse infection model against MRSA; assay type: in vivo; conditions: CD-1 mice, combined n=3 studies
Procedure: as §1, §2

[4] = Particle size of suspensions made with concentrated aqueous PVP (solvent evaporation attempts); assay type: physicochemical; conditions: low molecular weight PVP (3,500 Da), concentrated aqueous polymer solution
Excerpt: Alternative solvent evaporation systems such as oil-in-oil and water-in-oil systems were investigated, however large particle sizes were still observed. In an attempt to reduce solvent dissolution into the continuous phase of the oil-in-water system, the aqueous phase was saturated with different salts to reduce solvent solubility. However, little benefit was achieved through the use of the saturated salt systems, as large crystals were still observed. It was thought that the use of a concentrated aqueous polymer solution would disrupt or prevent crystal formation. Multiple molecular weights and concentrations of PVP were studied. […] In the expectation of further reducing the particle size (to <1 μm i.e. to nanoparticulate form) further surfactants were added. However, by contrast, the addition of further surfactants to the solution yielded large size growth of particles.

[5] = cited from earlier work
[6] = system: Staphylococcus aureus MSSA, MRSA, VISA and VRSA strains; conditions: pathogenic MSSA; cited from earlier work
MSSA and MRSA infections = conditions: murine model; cited from earlier work
[7] = single IV dose 50 mg/kg, 48 h post infection
[8] = single IV dose, Probit analysis

SMILES: CC(O)COC[C@H]1O[C@@H]2O[C@H]3[C@H](O)[C@@H](O)[C@@H](O[C@H]4[C@H](O)[C@@H](O)[C@@H](O[C@H]5[C@H](O)[C@@H](O)[C@@H](O[C@H]6[C@H](O)[C@@H](O)[C@@H](O[C@H]7[C@H](O)[C@@H](O)[C@@H](O[C@H]8[C@H](O)[C@@H](O)[C@@H](O[C@H]1[C@H](O)[C@H]2O)O[C@@H]8COCC(C)O)O[C@@H]7COCC(C)O)O[C@@H]6COCC(C)O)O[C@@H]5COCC(C)O)O[C@@H]4COCC(C)O)O[C@@H]3COCC(C)O (stereo partly drawn) [HPBCD, hydroxypropyl-beta-cyclodextrin]
Maximum reported safe daily dose [1]: 16 g/day

SMILES: CN[C@H](CC(C)C)C(=O)N[C@H]1C(=O)N[C@@H](CC(N)=O)C(=O)N[C@H]2C(=O)N[C@H]3C(=O)N[C@H](C(=O)N[C@H](C(=O)O)c4cc(O)cc(O)c4-c4cc3ccc4O)[C@H](O)c3ccc(c(Cl)c3)Oc3cc2cc(c3O[C@@H]2O[C@H](CO)[C@@H](O)[C@H](O)[C@H]2O[C@H]2C[C@](C)(N)[C@H](O)[C@H](C)O2)Oc2ccc(cc2Cl)[C@H]1O [Vancomycin, vancomycin]
% survival [2, 7]: 100% | Survival [2, 7]: 18/18 | PD50 (50% protective dose) [2, 8]: <50 mg/kg | % survival [3, 7]: 100% | Survival [3, 7]: 18/18 | PD50 (95% C.I.) [3, 8]: <50 mg/kg

Particle size of suspension [4]: 4.4 μm
SMILES: CCc1cc(O)c(Oc2ccc(C(N)=O)cc2F)cc1F [compound (I), 4-(4-ethyl-5-fluoro-2-hydroxyphenoxy)-3-fluorobenzamide]
Water-solubility [5]: relatively poor | Concentration at which compound (I) may be formulated ([5]; prior art historical formulation (water, glucose monohydrate, HPBCD)): up to 11.3 mg/mL | In vitro activity [6]: highly active | In vivo activity (MSSA and MRSA infections): active in vivo
